According to patent publication US12643867B2, “Compositions and uses thereof” (University of Virginia Patent Foundation, priority 2017, dated 2026):

Assays:
Experiment in all cases: SILAC LC-MS ATP acyl phosphate probe competition, native kinases in HEK293T
Assay type in all cases: binding
[1] = molecular target: T1, STK38 (Serine/threonine-protein kinase 38) (Homo sapiens, UniProt Q15208); details: site Lys1; ATP 1 mM; Ketanserin, Ritanserin 100 μM; RF001 1 mM
T1 construct: Native kinases; endogenous in cells; host or cells: HEK293T soluble proteome
In short: (§1)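 HEK293T SILAC proteomes, 2 mg/ml; heavy + compound (from 50× DMSO stock), light + DMSO, 30 min, 25° C. Mix 1:1, MeOH/CHCl3 extraction, DTT/iodoacetamide, trypsin/Lys-C 3 h 37° C. Avidin enrichment of desthiobiotin-modified peptides; Orbitrap Q Exactive Plus LC-MS, top-10 DDA.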

[2] = molecular target: T2, KCC1D (Calcium/calmodulin-dependent protein kinase type 1D) (Homo sapiens, UniProt Q8IU85); details: site Lys1; ATP 1 mM; Ketanserin, Ritanserin 100 μM; RF001 1 mM
T2 construct: measured against >50 native kinases quantified in HEK293T soluble proteomes; endogenous in cells; host or cells: HEK293T soluble proteome
In short: as §1

[3] = molecular target: T3, BRAF (B-Raf proto-oncogene serine/threonine-protein kinase) (Homo sapiens, UniProt P15056); details: site Lys2; ATP 1 mM; Ketanserin, Ritanserin 100 μM; RF001 1 mM
T3 construct: measured against >50 native kinases quantified in HEK293T soluble proteomes; endogenous in cells; host or cells: HEK293T soluble proteome
In short: as §1

[4] = molecular target: T4, IRAK1 (Interleukin-1 receptor-associated kinase 1) (Homo sapiens, UniProt P51617); details: site Lys2; ATP 1 mM; Ketanserin, Ritanserin 100 μM; RF001 1 mM
T4 construct: measured against >50 native kinases quantified in HEK293T soluble proteomes; endogenous in cells; host or cells: HEK293T soluble proteome
In short: as §1

T3 sequence (P15056 whole entry): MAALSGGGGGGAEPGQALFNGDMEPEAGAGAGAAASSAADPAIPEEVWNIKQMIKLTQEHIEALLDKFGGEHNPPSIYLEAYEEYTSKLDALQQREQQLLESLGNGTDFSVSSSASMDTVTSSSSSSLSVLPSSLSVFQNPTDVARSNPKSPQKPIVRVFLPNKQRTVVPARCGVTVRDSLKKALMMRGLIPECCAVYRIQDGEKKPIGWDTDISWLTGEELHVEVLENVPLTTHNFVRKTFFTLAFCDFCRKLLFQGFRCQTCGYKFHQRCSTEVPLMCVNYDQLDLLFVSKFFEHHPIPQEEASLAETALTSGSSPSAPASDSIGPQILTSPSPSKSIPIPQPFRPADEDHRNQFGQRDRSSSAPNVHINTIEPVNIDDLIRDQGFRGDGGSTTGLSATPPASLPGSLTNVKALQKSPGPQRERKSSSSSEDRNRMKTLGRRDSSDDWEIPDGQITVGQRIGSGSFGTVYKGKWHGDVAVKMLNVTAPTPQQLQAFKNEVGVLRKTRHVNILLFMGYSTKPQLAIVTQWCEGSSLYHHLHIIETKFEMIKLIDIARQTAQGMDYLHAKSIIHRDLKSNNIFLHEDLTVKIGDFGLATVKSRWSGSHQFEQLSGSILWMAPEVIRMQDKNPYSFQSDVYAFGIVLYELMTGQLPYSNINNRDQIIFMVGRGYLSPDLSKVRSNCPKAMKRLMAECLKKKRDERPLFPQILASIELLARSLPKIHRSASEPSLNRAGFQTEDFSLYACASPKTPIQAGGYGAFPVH
T1 sequence (Q15208 whole entry): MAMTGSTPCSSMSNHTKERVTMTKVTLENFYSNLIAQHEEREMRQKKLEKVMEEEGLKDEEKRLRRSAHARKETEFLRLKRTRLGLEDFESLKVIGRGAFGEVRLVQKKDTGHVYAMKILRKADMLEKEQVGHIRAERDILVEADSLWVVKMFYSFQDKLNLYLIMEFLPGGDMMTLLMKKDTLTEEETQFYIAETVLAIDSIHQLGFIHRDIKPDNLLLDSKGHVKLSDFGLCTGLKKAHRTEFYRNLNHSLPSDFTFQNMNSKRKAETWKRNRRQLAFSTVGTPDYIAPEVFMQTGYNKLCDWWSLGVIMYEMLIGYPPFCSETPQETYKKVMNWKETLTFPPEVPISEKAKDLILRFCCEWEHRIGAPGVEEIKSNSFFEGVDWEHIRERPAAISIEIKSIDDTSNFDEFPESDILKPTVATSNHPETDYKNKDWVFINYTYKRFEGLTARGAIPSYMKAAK
T2 sequence (Q8IU85 whole entry): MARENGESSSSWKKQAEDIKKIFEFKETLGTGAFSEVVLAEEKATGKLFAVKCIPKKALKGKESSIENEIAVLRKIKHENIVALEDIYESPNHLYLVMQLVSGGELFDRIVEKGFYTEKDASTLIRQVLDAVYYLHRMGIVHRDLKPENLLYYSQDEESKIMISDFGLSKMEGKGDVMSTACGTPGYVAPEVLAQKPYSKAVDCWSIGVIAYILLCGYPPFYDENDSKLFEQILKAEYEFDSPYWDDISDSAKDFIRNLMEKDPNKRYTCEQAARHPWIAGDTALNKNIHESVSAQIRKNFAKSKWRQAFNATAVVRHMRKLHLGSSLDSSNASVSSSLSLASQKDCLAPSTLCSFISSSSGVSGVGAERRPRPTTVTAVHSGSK
T4 sequence (P51617 whole entry): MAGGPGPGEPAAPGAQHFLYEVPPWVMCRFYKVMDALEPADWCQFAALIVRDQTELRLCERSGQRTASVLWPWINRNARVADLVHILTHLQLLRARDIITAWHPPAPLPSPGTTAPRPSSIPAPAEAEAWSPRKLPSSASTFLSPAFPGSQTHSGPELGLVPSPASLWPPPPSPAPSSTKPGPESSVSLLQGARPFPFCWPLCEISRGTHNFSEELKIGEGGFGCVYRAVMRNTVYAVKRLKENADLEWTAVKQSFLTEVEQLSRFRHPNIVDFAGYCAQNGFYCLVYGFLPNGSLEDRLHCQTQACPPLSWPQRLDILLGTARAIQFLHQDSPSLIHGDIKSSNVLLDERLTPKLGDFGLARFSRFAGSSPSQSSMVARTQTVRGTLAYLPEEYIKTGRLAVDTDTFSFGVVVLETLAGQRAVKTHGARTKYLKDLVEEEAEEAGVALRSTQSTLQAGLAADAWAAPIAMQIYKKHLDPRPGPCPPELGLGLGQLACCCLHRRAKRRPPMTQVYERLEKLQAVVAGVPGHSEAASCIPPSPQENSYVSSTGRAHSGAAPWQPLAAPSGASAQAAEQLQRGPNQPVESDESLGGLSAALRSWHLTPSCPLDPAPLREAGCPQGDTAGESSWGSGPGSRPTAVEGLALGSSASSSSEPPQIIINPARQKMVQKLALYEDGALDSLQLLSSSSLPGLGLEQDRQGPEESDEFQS

SILAC ratio, STK38 probe-modified peptide [1]	SILAC ratio, KCC1D probe-modified peptide [2]	SILAC ratio, BRAF probe-modified peptide [3]	SILAC ratio, IRAK1 probe-modified peptide [4]	SMILES
1.3	1.5	1.6	1.4	O=C(c1ccc(F)cc1)C1CCN(CCn2c(=O)[nH]c3ccccc3c2=O)CC1 [Ketanserin]
1.4	1.1	1.1	2.2	Fc1ccc(C(=C2CCNCC2)c2ccc(F)cc2)cc1 [RF001, 4-(Bis(4-fluorophenyl)methylene) piperidine]

SMILES	SILAC ratio, STK38 probe-modified peptide [1]	SILAC ratio, KCC1D probe-modified peptide [2]	SILAC ratio, BRAF probe-modified peptide [3]	SILAC ratio, IRAK1 probe-modified peptide [4]
Cc1nc2sccn2c(=O)c1CCN1CCC(=C(c2ccc(F)cc2)c2ccc(F)cc2)CC1 [Ritanserin]	2.0	2.3	1.8	2.6
